Common to all, as to assay: DTP human tumour cell line panel, 48 h
Test [1] concerns NCI/ADR-RES ovarian.
Test [2] deals with CAKI-1 renal.
The test system of test [3] is MDA-MB-435.
Test [4] deals with TK-10 renal.
Test [5] relates to DU-145 prostate.
In test [6] the test system is PC-3 prostate.
For test [7], the system named is SR leukemia.
The subject of test [8] is RXF 393 renal.
For test [9], the system named is SF-539 CNS.
Test [10] has as its system HL-60(TB) leukemia.

“And” between values parts separate entries of the source, which are not always exact repeats. Identical values can stand only once.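 Interpolation was linear, between the two tested concentrations surrounding the appropriate level; five concentrations were tested over 48 hours in 96-well plates. At the GI50, growth is halved. TGI: total growth inhibition.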

One may read the TGI as the concentration at which net growth stops. High values mean less potent growth arrest, low ones more potent growth arrest. What is called GI50 is the concentration giving 50% growth inhibition.

On to `Cc1ccc2c3c1[C@@H]1O[C@@H]1c1cccc(c1-3)[C@@H]1O[C@H]21`, for which the TGI stood at 90 µM in test [1]; 32.9 µM in test [2]; 31.4 µM in test [3]; 38.5 µM in test [4]; 22.9 µM in test [5]; 30.7 µM in test [6]. This compound registered a TGI in [7] of 59.3 µM.

Turning to `N#Cc1c(-c2ccc(Cl)cc2)c2c([nH]c1=O)-c1cc([N+](=O)[O-])ccc1CCC2`, the TGI in test [1] was 55.4 µM; in test [8], 37.6 µM; in [2] it was 52.6 µM; in test [3], over 100 µM; in [9] it was 35 µM; in test [4] it was 69.5 µM. Also, the concentration for total growth inhibition (TGI) in test [5] is over 100 µM; in [6] it was over 100 µM; in [10], 65.1 µM; in [7], over 100 µM.

Regarding `COP(=O)(OC)[C@H](O)[C@H]1C[C@@H]1c1ccccc1`, the TGI in [1], in test [8], in test [2], in test [3], in test [4] and in test [5] was over 100 µM each time. The total growth inhibition concentration (TGI) in test [6] and in test [10] was over 100 µM in each case.

Consider `NC(=O)CCSC(CC(=O)c1ccc(Cl)cc1)c1ccc(Cl)cc1` (stereo unspecified), for which the concentration for total growth inhibition (TGI) in [1] was 52.5 µM; in test [8] it was 32.6 µM; in [2], 42.6 µM; in test [3], 39.9 µM; in [9] it was 39.4 µM; in [4], over 100 µM. Moreover, the TGI in [5] is 85.4 µM; in test [6], over 100 µM; in [10], 25.6 µM; in [7] it was 22.9 µM.

In the case of `CCN(CCO)CCNc1ccc(C)c2sc3ccccc3c(=O)c12`, the TGI was 11.7 µM in [1]; 5.64 µM in test [8]; 12.6 µM in test [2]; 3.74 µM in [3]; 10.3 µM in test [9]; 21.4 µM in test [4]. For the same compound, the TGI is 21.8 µM in test [5], 12.7 µM in [6], 11.3 µM in test [10] and over 22.4 µM in test [7].

Turning to `O=c1[nH]c2cc([N+](=O)[O-])c(N/N=C/c3ccc(Cl)cc3Cl)c([N+](=O)[O-])c2[nH]1`, the TGI in test [1] is over 100 µM; in test [8], 40.9 µM; in test [2], over 100 µM; in test [3], over 100 µM; in test [9], over 100 µM; in test [4], over 100 µM. Moreover, the total growth inhibition concentration (TGI) in [5], in test [6] and in test [10] was over 100 µM throughout.

As to `O=CN1CCC23CC(O)CCC2C1Cc1cc(Oc2nnnn2-c2ccccc2)cc(O)c13` (stereo unspecified), the TGI in [1], in test [8], in [2], in test [3], in test [9] and in test [4] was over 100 µM in each case. The total growth inhibition concentration (TGI) in test [5], in [6], in [10] and in test [7] was over 100 µM in each case.

`COc1ccc2c(c1)CCCc1c-2nc2ccccc2c1N`: the TGI in test [1] stood at 33.6 µM; in test [8] it was 18.7 µM; in [2], 26.8 µM; in test [3], 24.8 µM; in [9], 24.8 µM; in [4] it was 23.2 µM. Besides, the total growth inhibition concentration (TGI) in [5] turned out to be 26.1 µM; in [6], 23.4 µM; in test [10], 32.4 µM; in [7] it was 6.32 µM.

As to `COc1ccc(N=Nc2c(N)nn(C)c2N)cc1`, the TGI in test [8], in [2], in test [9], in test [4], in test [10] and in test [7] was over 100 µM in each case.

Regarding `O=C(NC(Cc1ccc(Cl)cc1)C(=O)O)c1ccc(I)cc1` (stereo unspecified), the total growth inhibition concentration (TGI) in test [1], in test [8], in test [2], in test [9] and in [10] was over 100 µM in each case.

Regarding `CCOC(=O)C12CC(C)=C(C)CC1CCCc1ccccc12` (stereo unspecified), the total growth inhibition concentration (TGI) in test [1] is over 100 µM; in test [8], 43.1 µM; in test [2], over 100 µM; in test [3], 97.2 µM; in test [9], 85.7 µM; in test [4], 77.8 µM. In addition, the TGI is over 100 µM in test [5], 68.1 µM in test [6], 29.5 µM in test [10] and 84.4 µM in [7].

As to `CCCCCCCCCCCCSC(=S)c1c(C)[nH]n(CCCCCCCCCCCC)c1=O`, the concentration for total growth inhibition (TGI) in test [2], in test [9], in [10] and in test [7] was over 100 µM in each case.

Take `CCCC[C@H]1C(=O)O[C@H](C)[C@H](NC(=O)c2cccc(NC=O)c2OC)C(=O)O[C@@H](C)[C@@H]1OC(=O)CC(C)C` (tested in a mixture with another compound): the TGI in test [1] was 61.1 µM; in test [8] it was 34.6 µM; in test [2], 31 µM; in test [3] it was 25.6 µM; in test [9], 51.9 µM; in test [4] it was 30.7 µM. Further, the TGI was 55.7 µM in test [5], 32.6 µM in test [6], 35.8 µM in [10] and 50.5 µM in [7].

Take `COc1cc(C2C(=O)C(Cl)N2Nc2nc(C)cc(=O)[nH]2)cc(OC)c1OC` (stereo unspecified): the total growth inhibition concentration (TGI) in test [8] was 26.4 µM; in test [9], 35.1 µM; in [4], over 100 µM; in [10], 33.7 µM; in test [7], 77.1 µM.

Turning to `C[C@H]1CCC/C=C/[C@@H]2C[C@H](O)C[C@H]2[C@H](O)/C=C/C(=O)O1`, the GI50 is 0.0476 µM in [1]; 0.0227 µM and 0.0545 µM and 0.0438 µM in test [2]; < 0.0173 µM and 0.0369 µM and 0.0449 µM in [3]; 0.0321 µM in test [9]; 0.0785 µM and 0.218 µM and 0.248 µM in test [5]; < 0.0202 µM and 0.0475 µM and 0.0478 µM in test [6]. For the same compound, the GI50 in [10] was 0.0281 µM and 0.167 µM and 0.115 µM; in [7], < 0.0146 µM and 0.0808 µM and 0.0415 µM. In addition, the concentration for total growth inhibition (TGI) in test [8] was 0.0481 µM and 0.053 µM and 0.0188 µM; in test [2], 0.0596 µM and 0.199 µM and 0.36 µM; in [4], 2.57 µM and 0.362 µM and 1 µM; in test [10], 1.82 µM and > 15.2 µM.

(Values after PubChem BioAssay (NCI).)
